Structures can show the parent of a compound that is named as a salt.

Assay [1] addresses PDE4 (Homo sapiens, UniProt Q08499). As to the kind of experiment: In-vitro assay for PDE4 enzymes, real-time enzyme-coupled spectrophotometric assay (Table 9). The assay is classed as biochemical. The conditions noted are these: human PDE4D; activity class, Table 9; read-out: hPDE4D.
Assay [2] deals with PDE4B (Homo sapiens, UniProt Q07343). The assay can be described thus: In-vitro assay for PDE4 enzymes, real-time enzyme-coupled spectrophotometric assay, PDE4B Activity (Table 10). The conditions noted are these: human PDE4B (hPDE4B), enzyme-coupled spectrophotometric assay; read-out: PDE4B Activity, hPDE4B. The class given is biochemical.
Sequence of PDE4B (Q07343 whole entry): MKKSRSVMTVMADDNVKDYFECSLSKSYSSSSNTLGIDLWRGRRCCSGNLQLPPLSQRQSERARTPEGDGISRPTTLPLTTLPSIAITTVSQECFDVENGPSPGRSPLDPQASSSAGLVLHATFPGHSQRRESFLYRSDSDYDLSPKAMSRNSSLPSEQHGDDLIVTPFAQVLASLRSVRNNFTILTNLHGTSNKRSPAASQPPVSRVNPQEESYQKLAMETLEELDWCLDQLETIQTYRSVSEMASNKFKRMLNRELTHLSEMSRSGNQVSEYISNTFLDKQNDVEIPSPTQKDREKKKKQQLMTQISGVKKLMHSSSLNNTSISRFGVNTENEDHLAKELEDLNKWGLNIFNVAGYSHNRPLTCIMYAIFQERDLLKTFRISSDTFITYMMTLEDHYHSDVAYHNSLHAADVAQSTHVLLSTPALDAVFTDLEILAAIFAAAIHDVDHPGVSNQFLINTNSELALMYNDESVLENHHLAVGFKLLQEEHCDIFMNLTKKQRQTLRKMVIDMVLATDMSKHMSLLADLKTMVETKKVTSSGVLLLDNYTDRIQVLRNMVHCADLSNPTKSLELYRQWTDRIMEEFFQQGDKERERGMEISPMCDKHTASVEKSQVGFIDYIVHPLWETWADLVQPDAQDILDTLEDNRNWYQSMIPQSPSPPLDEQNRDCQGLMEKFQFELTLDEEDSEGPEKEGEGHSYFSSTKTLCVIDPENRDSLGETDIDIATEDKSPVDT

Sequence of PDE4 (Q08499 whole entry): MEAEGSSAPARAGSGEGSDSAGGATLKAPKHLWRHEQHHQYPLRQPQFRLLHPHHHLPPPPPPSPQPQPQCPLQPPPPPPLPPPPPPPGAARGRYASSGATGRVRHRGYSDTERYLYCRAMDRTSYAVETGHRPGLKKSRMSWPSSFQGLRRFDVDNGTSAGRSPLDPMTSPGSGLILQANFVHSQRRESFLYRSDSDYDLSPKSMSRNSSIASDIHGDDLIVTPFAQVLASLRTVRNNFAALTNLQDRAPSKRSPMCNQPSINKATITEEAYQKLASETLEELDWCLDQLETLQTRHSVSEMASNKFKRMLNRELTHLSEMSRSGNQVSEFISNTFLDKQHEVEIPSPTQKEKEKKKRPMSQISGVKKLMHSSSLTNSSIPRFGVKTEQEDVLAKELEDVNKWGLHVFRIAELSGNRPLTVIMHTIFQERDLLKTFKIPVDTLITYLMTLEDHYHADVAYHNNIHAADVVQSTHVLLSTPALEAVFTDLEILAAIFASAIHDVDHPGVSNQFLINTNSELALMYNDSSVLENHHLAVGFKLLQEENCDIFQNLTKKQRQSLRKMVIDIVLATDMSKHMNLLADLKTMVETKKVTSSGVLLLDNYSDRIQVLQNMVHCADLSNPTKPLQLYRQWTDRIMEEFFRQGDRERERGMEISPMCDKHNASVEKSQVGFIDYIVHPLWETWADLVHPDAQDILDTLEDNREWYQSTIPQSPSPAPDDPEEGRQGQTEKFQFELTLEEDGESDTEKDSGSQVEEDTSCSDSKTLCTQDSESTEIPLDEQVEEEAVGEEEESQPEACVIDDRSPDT

Consider `COc1ccc(Cc2ccc(N)cc2)c(F)c1-c1cccc(Br)c1` [P-453], for which the IC50 in assay [1] and in assay [2] was below 5 µM each time.
Take `COc1ccc(Cc2ccc(F)nc2)c(F)c1-c1cccc(Cl)c1` [P-456, 5-(3′Chloro-2-fluoro-6-methoxy-biphenyl-3-ylmethyl)-2-fluoro-pyridine]: the IC50 in assay [1] and in assay [2] was below 5 µM each time.
`COc1ccc(Cc2ccc(N3CC(O)C3)nc2)c(F)c1-c1cccc(Cl)c1` [P-457, 1-[5-(3′-Chloro-2-fluoro-6-methoxy-biphenyl-3-ylmethyl)-pyridin-2-yl]-azetidin-3-ol]: the IC50 in assay [1] and in assay [2] was below 5 µM in each case.
As for `COc1ccc(Cc2cnc(N(C)CCO)nc2)c(F)c1-c1cccc(Cl)c1` [P-458, 2-{[5-(3′-Chloro-2-fluoro-6-methoxy-biphenyl-3-ylmethyl)-pyrimidin-2-yl]-methyl-amino}-ethanol], the IC50 in assay [1] and in assay [2] was below 5 µM in each case.
On to `CNC(=O)NCc1ccc(Cc2ccc(OC)c(-c3cccc(Cl)c3)c2F)cn1` [P-460, 1-[5-(3′-Chloro-2-fluoro-6-methoxy-biphenyl-3-ylmethyl)-pyridin-2-ylmethyl]-3-methyl-urea hydrochloride], for which the IC50 in assay [1] and in assay [2] was below 5 µM each time.
Take `CCN1CCN(Cc2ccc(Cc3ccc(OC)c(-c4cccc(Cl)c4)c3F)cn2)C1=O` [P-461, 1-[5-(3′-Chloro-2-fluoro-6-methoxy-biphenyl-3-ylmethyl)-pyridin-2-ylmethyl]-3-ethyl-imidazolidin-2-one hydrochloride]: the IC50 in assay [1] and in assay [2] was below 5 µM in each case.
For the compound `COc1ccc(Cc2ccc(CN3CCOC3=O)nc2)c(F)c1-c1cccc(Cl)c1` [P-465, 3-[5-(3′-Chloro-2-fluoro-6-methoxy-biphenyl-3-ylmethyl)-pyridin-2-ylmethyl]-oxazolidin-2-one hydrochloride], the IC50 in assay [1] and in assay [2] was below 5 µM in each case.
In the case of `COc1ccc(Cc2ccc(Nc3nccn3C)cc2)cc1-c1cccc(Cl)c1` [P-467, [4-(3′-Chloro-6-methoxy-biphenyl-3-ylmethyl)-phenyl]-(1-methyl-1H-imidazol-2-yl)-amine], the IC50 in assay [1] and in assay [2] was below 5 µM in each case.
As to `NC(=O)Nc1ccc(Cc2ccc(O)c(-c3cccc(Cl)c3)c2F)cc1` [P-468, [4-(3′-Chloro-2-fluoro-6-hydroxy-biphenyl-3-ylmethyl)-phenyl]-urea], the IC50 in assay [1] and in assay [2] was below 5 µM each time.
For `COc1ccc(Cc2ccc(N3CCOC3=O)nc2)c(F)c1-c1cccc(Cl)c1` [P-469, 3-[5-(3′-Chloro-2-fluoro-6-methoxy-biphenyl-3-ylmethyl)-pyridin-2-yl]-oxazolidin-2-one], the IC50 in assay [1] and in assay [2] was below 5 µM each time.
For the compound `COc1ccc(Cc2ccc(N3CCN(C)C3=O)nc2)c(F)c1-c1cccc(Cl)c1` [P-470, 1-[5-(3′-Chloro-2-fluoro-6-methoxy-biphenyl-3-ylmethyl)-pyridin-2-yl]-3-methyl-imidazolidin-2-one], the IC50 in assay [1] and in assay [2] was below 5 µM each time.
Turning to `COc1ccc(Cc2ccc(NCC(N)=O)nc2)c(F)c1-c1cccc(Cl)c1` [P-471], the IC50 in assay [1] and in assay [2] was below 5 µM each time.
As for `COc1ccc(Cc2ccc(N(C)C)nc2)c(F)c1-c1cccc(Cl)c1` [P-473, [5-(3′-Chloro-2-fluoro-6-methoxy-biphenyl-3-ylmethyl)-pyridin-2-yl]-dimethyl-amine], the IC50 in assay [1] and in assay [2] was below 5 µM in each case.
`COc1ccc(Cc2ccc(N)cn2)c(F)c1-c1cccc(Cl)c1` [P-478]: the IC50 in assay [1] and in assay [2] was below 5 µM in each case.
`COc1ccc(Cn2cnc(-c3cccnc3)c2)c(F)c1-c1cccc(Cl)c1` [P-479, 3-[1-(3′-Chloro-2-fluoro-6-methoxy-biphenyl-3-ylmethyl)-1H-imidazol-4-yl]-pyridine]: the IC50 in assay [1] was below 5 µM; in assay [2], 5 to 20 µM.
On the same counts, the results for `COc1ccc(Cn2cncn2)cc1-c1ccc2nonc2c1` [P-481, 5-(2-Methoxy-5-[1,2,4]triazol-1-ylmethyl-phenyl)-benzo[1,2,5]oxadiazole] are below 5 µM and 5 to 20 µM.
On the same counts, the results for `O=c1ccc(Cc2ccc(O)c(-c3cccc([N+](=O)[O-])c3)c2)n[nH]1` [P-488, 6-(6-Hydroxy-3′-nitro-biphenyl-3-ylmethyl)-2H-pyridazin-3-one] are below 5 µM and 5 to 20 µM.
Take `O=[N+]([O-])c1cccc(-c2cc(Cc3ccc(F)cc3)ccc2O)c1` [P-494, 5-(4-Fluoro-benzyl)-3′-nitro-biphenyl-2-ol]: the IC50 in assay [1] and in assay [2] was below 5 µM in each case.
As to `Oc1ccc(Cc2ccc(F)cc2)c(F)c1-c1cccc(Br)c1` [P-496], the IC50 in assay [1] and in assay [2] was below 5 µM each time.
For `O=[N+]([O-])c1cccc(-c2cc(Cc3ccc(Cl)nc3)ccc2O)c1` [P-500], the values for the IC50 in assay [1] and in assay [2] were below 5 µM and 5 to 20 µM, respectively.
As for `O=C1CCCN1Cc1ccc(O)c(-c2cccc([N+](=O)[O-])c2)c1` [P-503, 1-(6-Hydroxy-3′-nitro-biphenyl-3-ylmethyl)-pyrrolidin-2-one], the IC50 in assay [1] and in assay [2] was 5 to 20 µM throughout.
Take `O=C1CCCN1Cc1ccc(O)c(-c2cccc([N+](=O)[O-])c2)c1O` [P-504, 1-(2,6-Dihydroxy-3′-nitro-biphenyl-3-ylmethyl)-pyrrolidin-2-one]: the IC50 was below 5 µM in assay [1] and 5 to 20 µM in assay [2].
For `NC(=O)Nc1ccc(Cc2ccc(O)c(-c3cccc([N+](=O)[O-])c3)c2F)cc1` [P-508], the IC50 in assay [1] is below 5 µM; in assay [2] it was 5 to 20 µM.
On the same counts, the results for `CCNC(=O)Nc1ccc(Cc2ccc(OC)c(-c3cccc(-c4nnn[nH]4)c3)c2F)cn1` [P-513, 1-Ethyl-3-{5-[2-fluoro-6-methoxy-3′-(1H-tetrazol-5-yl)-biphenyl-3-ylmethyl]-pyridin-2-yl}-urea] are 5 to 20 µM and 21 to 40 µM.
With `COc1ccc(Cc2ccnc(N3CCNCC3)c2)c(F)c1-c1cccc(Cl)c1` [P-515, 1-[4-(3′-Chloro-2-fluoro-6-methoxy-biphenyl-3-ylmethyl)-pyridin-2-yl]-piperazine], the IC50 in assay [1] and in assay [2] was below 5 µM each time.
For `[2H]C([2H])([2H])Oc1ccc(Cc2ccc(NC(N)=O)cc2)cc1-c1cccc(Cl)c1` [P-516], the IC50 in assay [1] and in assay [2] was below 5 µM throughout.
As to `COc1ccc(Cc2ccnc(N3CCN(C(N)=O)CC3)c2)c(F)c1-c1cccc(Cl)c1` [P-518, 4-[4-(3′-Chloro-2-fluoro-6-methoxy-biphenyl-3-ylmethyl)-pyridin-2-yl]-piperazine-1-carboxylic acid amide], the IC50 in assay [1] and in assay [2] was below 5 µM in each case.
Take `CCNC(=O)N1CCN(c2cc(Cc3ccc(OC)c(-c4cccc(Cl)c4)c3F)ccn2)CC1` [P-519, 4-[4-(3′-Chloro-2-fluoro-6-methoxy-biphenyl-3-ylmethyl)-pyridin-2-yl]-piperazine-1-carboxylic acid ethylamide]: the IC50 in assay [1] and in assay [2] was below 5 µM each time.
Take `COc1ccc(Cc2ccc(CNC(=O)C(N)=O)nc2)c(F)c1-c1cccc(Cl)c1` [P-521, N-[5-(3′-Chloro-2-fluoro-6-methoxy-biphenyl-3-ylmethyl)-pyridin-2-ylmethyl]-oxalamide]: the IC50 in assay [1] and in assay [2] was below 5 µM each time.
Turning to `COc1ccc(Cc2ccc(OC[C@H]3CCCN3)nc2)c(F)c1-c1cccc(Cl)c1` [P-523, 5-(3′-Chloro-2-fluoro-6-methoxy-biphenyl-3-ylmethyl)-2-((R)-1-pyrrolidin-2-ylmethoxy)-pyridine], the IC50 in assay [1] and in assay [2] was below 5 µM in each case.
For the compound `COc1ccc(-n2cnc3ccc(N)cc32)cc1-c1cccc(Cl)c1` [P-524, 3-(3′-Chloro-6-methoxy-biphenyl-3-yl)-3H-benzoimidazol-5-ylamine], the IC50 in assay [1] and in assay [2] was below 5 µM throughout.
For `COc1ccc(Cn2cc(-c3ccccn3)cn2)c(F)c1-c1cccc(Cl)c1` [P-527, 2-[1-(3′-Chloro-2-fluoro-6-methoxy-biphenyl-3-ylmethyl)-1H-pyrazol-4-yl]-pyridine], the figures for the IC50 in assay [1] and in assay [2] were below 5 µM and 5 to 20 µM, respectively.
On the same counts, the results for `[2H]C([2H])(c1ccc(NC(N)=O)cc1)c1ccc(OC)c(-c2cccc(Cl)c2)c1F` [P-532, {4-[(3′-Chloro-2-fluoro-6-methoxy-biphenyl-3-yl)-bisduetero-methyl]-phenyl}-urea] are below 5 µM and below 5 µM.
`CCNC(=O)N1CCC[C@@H]1COc1ccc(Cc2ccc(OC)c(-c3cccc(Cl)c3)c2F)cn1` [P-533, (R)-2-[5-(3′-Chloro-2-fluoro-6-methoxy-biphenyl-3-ylmethyl)-pyridin-2-yloxymethyl]-pyrrolidine-1-carboxylic acid ethylamide]: the IC50 in assay [1] and in assay [2] was below 5 µM each time.
With `COc1ccc(Cn2cnc(C(N)=O)c2)c(F)c1-c1cccc(Cl)c1` [P-534, 1-(3′-Chloro-2-fluoro-6-methoxy-biphenyl-3-ylmethyl)-1H-imidazole-4-carboxylic acid amide], the IC50 in assay [1] and in assay [2] was below 5 µM each time.
In the case of `COc1ccc(Cn2cncc2C(N)=O)c(F)c1-c1cccc(Cl)c1` [P-535, 3-(3′-Chloro-2-fluoro-6-methoxy-biphenyl-3-ylmethyl)-3H-imidazole-4-carboxylic acid amide], the IC50 in assay [1] and in assay [2] was below 5 µM in each case.
For the compound `COc1ccc(Cn2cnc([N+](=O)[O-])c2)c(F)c1-c1cccc(Cl)c1` [P-536, 1-(3′-Chloro-2-fluoro-6-methoxy-biphenyl-3-ylmethyl)-4-nitro-1H-imidazole], the IC50 in assay [1] and in assay [2] was below 5 µM in each case.
